Test results from ChEMBL document CHEMBL1201862, “PubChem BioAssay data set” (2004).
Calls of active or inactive are those of the source. The rule behind the calls is not given here.

Columns and labels:
[1] = biological target: T1, High affinity choline transporter 1 (Homo sapiens, UniProt Q9GZV3); assay: CHT inhibitors, dose response, cell-based, 5-point CRC, membrane potential dye (AID 504840); type: functional
T1 sequence (Q9GZV3 whole entry): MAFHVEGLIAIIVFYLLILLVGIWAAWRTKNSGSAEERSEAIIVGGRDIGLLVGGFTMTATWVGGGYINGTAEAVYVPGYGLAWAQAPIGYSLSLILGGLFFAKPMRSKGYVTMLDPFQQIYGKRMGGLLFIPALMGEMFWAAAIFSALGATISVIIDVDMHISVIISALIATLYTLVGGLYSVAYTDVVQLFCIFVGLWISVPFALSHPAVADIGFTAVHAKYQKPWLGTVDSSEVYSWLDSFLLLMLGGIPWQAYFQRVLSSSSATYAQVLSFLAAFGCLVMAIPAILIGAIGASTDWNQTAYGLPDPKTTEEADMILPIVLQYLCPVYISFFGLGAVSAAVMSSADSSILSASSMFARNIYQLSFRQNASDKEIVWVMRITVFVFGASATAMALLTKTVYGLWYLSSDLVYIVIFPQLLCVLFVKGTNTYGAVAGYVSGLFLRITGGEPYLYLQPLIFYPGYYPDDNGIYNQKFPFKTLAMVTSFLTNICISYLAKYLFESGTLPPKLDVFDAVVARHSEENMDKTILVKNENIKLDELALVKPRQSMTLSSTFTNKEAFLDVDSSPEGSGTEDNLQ

[2] = biological target: T1, High affinity choline transporter 1; assay: CHT inhibitors, dose response, cell-based, 10-point CRC, membrane potential dye (AID 588401); type: functional;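 note: membrane potential dye fluorescence of choline-evoked depolarization via CHT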

IC50 [1]: 9.8 µM (active)
IC50 [2]: 4.74 µM (active)
SMILES: Cc1nnc(NCc2cccc(Cl)c2)c2ccccc12
